Measurements reported in ChEMBL document CHEMBL1201862, “PubChem BioAssay data set” (2004).
Calls of active or inactive are those of the source.

Key:
[1] = biological target: T1, Methionyl-tRNA synthetase, putative (Trypanosoma brucei brucei, UniProt Q38C91); format: functional, Trypanosoma brucei brucei strain 927/4 GUTat10.1
T1 sequence (Q38C91 whole entry): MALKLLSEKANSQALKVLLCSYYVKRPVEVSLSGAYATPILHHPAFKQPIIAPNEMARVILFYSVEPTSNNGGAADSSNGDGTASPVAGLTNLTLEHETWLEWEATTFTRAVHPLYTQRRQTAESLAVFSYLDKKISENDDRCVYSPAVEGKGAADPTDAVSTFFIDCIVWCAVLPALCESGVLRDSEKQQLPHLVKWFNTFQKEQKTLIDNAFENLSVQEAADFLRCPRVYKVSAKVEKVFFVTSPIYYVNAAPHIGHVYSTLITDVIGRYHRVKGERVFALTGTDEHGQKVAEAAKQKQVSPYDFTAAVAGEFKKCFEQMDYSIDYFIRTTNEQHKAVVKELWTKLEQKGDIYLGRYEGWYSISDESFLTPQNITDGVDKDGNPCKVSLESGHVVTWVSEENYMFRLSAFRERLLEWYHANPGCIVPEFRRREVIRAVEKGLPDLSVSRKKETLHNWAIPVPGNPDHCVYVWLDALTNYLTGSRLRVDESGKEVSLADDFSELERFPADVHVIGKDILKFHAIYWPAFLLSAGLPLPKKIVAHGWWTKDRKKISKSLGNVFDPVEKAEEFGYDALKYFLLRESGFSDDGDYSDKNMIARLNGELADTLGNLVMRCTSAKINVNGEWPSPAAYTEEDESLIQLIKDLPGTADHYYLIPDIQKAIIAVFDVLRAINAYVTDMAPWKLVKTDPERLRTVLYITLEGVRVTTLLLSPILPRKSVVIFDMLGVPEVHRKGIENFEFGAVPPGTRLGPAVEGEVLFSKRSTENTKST

[2] = Counterscreen for inhibitors of Trypanosoma brucei methionyl tRNA synthetase (MetRS): Luminescence-based cell-based high throughput dose response assay to identify compounds that are cytotoxic to Jurkat human T lymphocyte cells.; format: functional
[3] = biological target: T1, Methionyl-tRNA synthetase, putative; format: functional, Trypanosoma brucei brucei strain 927/4 GUTat10.1; remark: listed apart in the source
[4] = inhibitors of SNCA 5'UTR-driven reporter translation, confirmation, H4 neuroglioma cells, luminescence (AID 1988); format: functional, cell-based
[5] = inhibitors of firefly luciferase expression or activity, dose response, H4 neuroglioma cells, luminescence (AID 1990); format: functional, cell-based
[6] = Luminescence Cell-Based Dose Response HTS to Identify Inhibitors of 5'UTR Stem-Loop Driven Prion Protein mRNA Translation in H4 Neuroglioblastoma Cells. [Related pubchem assays: 1827 (Project Summary), 1813 (Primary HTS)]; format: functional
[7] = HeLa cell cytotoxicity, dose response, cytotoxicity control for MgcRacGAP inhibitor project (AID 624300); format: functional
[8] = biological target: T2, Rac GTPase-activating protein 1 (Homo sapiens, UniProt Q9H0H5); assay: MgcRacGAP GTPase-activating activity inhibitors, confirmation, biochemical, ADP Hunter fluorescence, primary and confirmatory (AID 624330); format: functional
T2 sequence (Q9H0H5 whole entry): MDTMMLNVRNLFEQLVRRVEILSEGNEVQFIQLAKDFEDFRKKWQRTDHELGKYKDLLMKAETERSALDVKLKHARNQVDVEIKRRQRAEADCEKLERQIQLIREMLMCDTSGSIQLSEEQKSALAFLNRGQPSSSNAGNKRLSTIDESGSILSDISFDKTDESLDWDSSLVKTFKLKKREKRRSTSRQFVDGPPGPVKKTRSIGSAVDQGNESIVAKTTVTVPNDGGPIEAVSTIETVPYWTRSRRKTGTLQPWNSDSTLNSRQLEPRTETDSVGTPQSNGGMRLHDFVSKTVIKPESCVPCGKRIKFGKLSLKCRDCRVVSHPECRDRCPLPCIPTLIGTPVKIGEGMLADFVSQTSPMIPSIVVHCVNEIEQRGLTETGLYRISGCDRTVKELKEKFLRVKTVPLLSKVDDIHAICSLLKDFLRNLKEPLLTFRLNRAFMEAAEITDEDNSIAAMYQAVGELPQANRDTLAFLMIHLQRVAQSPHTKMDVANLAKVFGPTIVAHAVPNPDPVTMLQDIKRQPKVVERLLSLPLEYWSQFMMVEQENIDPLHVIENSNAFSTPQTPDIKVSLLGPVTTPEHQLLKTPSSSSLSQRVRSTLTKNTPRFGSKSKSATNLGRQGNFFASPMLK

[9] = inhibitors of HIV Env-driven cell fusion, dose response, cherry-pick (AID 652057); format: functional, cell-based
[10] = ZM109 Env clade C HIV-1 fusion inhibitors, dose response, HeLa effector, CEM target cells, luciferase, cherry-pick (AID 652058); format: functional, cell-based
[11] = CEM21 lymphoblast cell cytotoxicity, dose response, cytotoxicity control for viral fusion inhibitor project, CellTiter-Glo luminescence, cherry-picked (AID 652042); format: functional, cell-based;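 note: potency for signal decrease meaning cytotoxicity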
[12] = off-target signal loss in HeLa-CEM21 co-culture – HeLa F-luc CTL cells, cherry-picked, counter-screen for HIV-1 Env fusion inhibitor project, dose response (AID 652040); format: functional, cell-based;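 note: potency for signal decrease marking cytotoxic or nonspecific inhibition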
[13] = inhibitors of clade B AD8 Env fusion, dose response, cell-based, cherry-pick (AID 652062); format: functional;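 note: luciferase signal from cell-cell fusion driven by HIV-1 clade B AD8 Env; potency is for inhibitors of fusion seen as a drop in luminescence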
[14] = LGR2 antagonists, dose response, cell-based, HEK293, CRE-luciferase reporter, cherry pick, set 2 (AID 743343); format: functional;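 note: transfected cells were stimulated with diluted bursicon conditioned medium after compound addition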
[15] = MC4R antagonists, dose response, counter-screen for LGR2 antagonist project, cell-based, plate reader, cherry pick (AID 743444); format: functional;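 note: transfected HEK 293 cells stimulated with alpha-MSH peptide; potency of inhibitors of the alpha-MSH evoked signal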
[16] = biological target: T3, DNA repair protein RAD52 homolog (Homo sapiens, UniProt P43351); format: functional, biochemical
T3 sequence (P43351 whole entry): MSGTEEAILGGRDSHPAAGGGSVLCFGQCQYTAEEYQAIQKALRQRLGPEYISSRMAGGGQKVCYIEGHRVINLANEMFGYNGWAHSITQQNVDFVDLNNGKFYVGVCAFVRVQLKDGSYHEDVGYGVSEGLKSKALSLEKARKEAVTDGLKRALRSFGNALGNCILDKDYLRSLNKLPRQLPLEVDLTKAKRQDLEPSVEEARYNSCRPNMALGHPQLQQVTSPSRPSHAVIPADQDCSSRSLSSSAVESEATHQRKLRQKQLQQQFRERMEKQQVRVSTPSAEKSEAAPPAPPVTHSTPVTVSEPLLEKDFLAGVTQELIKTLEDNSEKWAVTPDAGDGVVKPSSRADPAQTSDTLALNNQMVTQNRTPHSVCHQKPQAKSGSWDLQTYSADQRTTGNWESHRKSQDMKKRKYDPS

[17] = inhibitors of intracellular T. cruzi replication, confirmation, NIH3T3 host cells, beta-gal luminescence (AID 2044); format: functional, cell-based;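 note: intracellular parasites grown in NIH/3T3 mouse fibroblasts as host cells; luminescent beta-galactosidase reporter signal from transgenic T. cruzi replicating inside host cells; inhibitors lower the luminescence signal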
[18] = cytotoxicity toward NIH3T3 fibroblasts, dose response, counter-screen, cell-based, ATP luminescence, mouse fibroblasts (AID 2010); format: functional;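 note: cells exposed to compound for about 90 hours before reading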
[19] = inhibitors of PGC1a acetylation in cells, dose response, cell-based, cherry-picked samples (AID 720514); format: functional;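 note: potency may reflect raised or lowered acetylation signal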
[20] = biological target: T4, Microphthalmia-associated transcription factor (Homo sapiens, UniProt O75030); assay: TRPM1 promoter luciferase signal decrease, dose response, MITF inhibitor project, cell-based, SK-MEL-5, cherry-picked, set 3 (AID 493073); format: functional
T4 sequence (O75030 whole entry): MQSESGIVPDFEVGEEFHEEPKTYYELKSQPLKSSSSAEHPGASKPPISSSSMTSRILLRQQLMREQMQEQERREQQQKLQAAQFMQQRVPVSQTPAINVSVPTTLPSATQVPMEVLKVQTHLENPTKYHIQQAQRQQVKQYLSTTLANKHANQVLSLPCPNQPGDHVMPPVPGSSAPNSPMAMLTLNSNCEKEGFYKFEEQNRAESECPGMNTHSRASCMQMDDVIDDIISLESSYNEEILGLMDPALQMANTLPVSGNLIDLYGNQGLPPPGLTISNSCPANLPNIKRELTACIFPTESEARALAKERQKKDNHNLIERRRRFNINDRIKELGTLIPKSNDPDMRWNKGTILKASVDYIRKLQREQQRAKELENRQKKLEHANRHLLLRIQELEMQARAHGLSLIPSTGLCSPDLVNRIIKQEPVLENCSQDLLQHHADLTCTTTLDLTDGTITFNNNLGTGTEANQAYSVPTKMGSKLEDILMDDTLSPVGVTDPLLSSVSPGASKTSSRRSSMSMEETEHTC

[21] = P. falciparum Dd2 growth inhibitors, dose response, SYBR Green, cherry-picked samples (AID 1159567); format: functional, cell-based
Streptococcus = assay: Group A Streptococcus viability loss, dose response, counter-screen for streptokinase expression inhibitor project, luminescence, BacTiterGlo (AID 1915); format: functional, organism-based;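 note: potency for reduction of bacterial viability or growth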
Streptokinase A = biological target: T5, Streptokinase A (Streptococcus pyogenes serotype M1, UniProt P10520); assay: S. pyogenes streptokinase expression inhibitors, potency, dose response, plasminogen activation absorbance, OD405 (AID 1914); format: functional, Streptococcus pyogenes M1 GAS;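 note: secreted streptokinase activity via plasminogen activation per viability signal from cell pellet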
T5 sequence (P10520 whole entry): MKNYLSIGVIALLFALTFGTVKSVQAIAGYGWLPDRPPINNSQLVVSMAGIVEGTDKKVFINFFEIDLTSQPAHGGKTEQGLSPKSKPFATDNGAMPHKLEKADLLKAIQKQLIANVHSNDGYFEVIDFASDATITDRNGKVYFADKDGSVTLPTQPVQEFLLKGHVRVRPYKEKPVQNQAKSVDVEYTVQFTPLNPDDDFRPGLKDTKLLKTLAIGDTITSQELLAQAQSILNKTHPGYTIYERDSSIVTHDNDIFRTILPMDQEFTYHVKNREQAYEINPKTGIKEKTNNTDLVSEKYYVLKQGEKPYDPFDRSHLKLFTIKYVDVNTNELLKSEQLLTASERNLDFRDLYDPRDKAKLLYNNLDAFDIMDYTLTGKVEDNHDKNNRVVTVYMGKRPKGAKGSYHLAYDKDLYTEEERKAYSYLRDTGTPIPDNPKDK

[22] = biological target: FAD-linked sulfhydryl oxidase ALR (Homo sapiens, UniProt P55789); assay: inhibitors of human ALR sulfhydryl oxidase, dose response, biochemical, H2O2 detection, luminescence, cherry-pick (AID 493248)
Chain of FAD-linked sulfhydryl oxidase ALR (P55789 whole entry): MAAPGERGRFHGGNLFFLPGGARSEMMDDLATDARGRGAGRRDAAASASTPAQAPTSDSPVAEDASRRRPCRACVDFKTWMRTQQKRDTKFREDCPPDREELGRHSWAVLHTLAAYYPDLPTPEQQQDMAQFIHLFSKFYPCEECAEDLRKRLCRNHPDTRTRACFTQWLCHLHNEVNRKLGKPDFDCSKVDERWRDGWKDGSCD

[23] = tested on: Streptococcus sp. 'group A'; assay: growth inhibition of control SK(-) GAS strain, dose response, counter-screen for streptokinase expression inhibitor project, luminescence, kanamycin, BacTiterGlo, confirmation (AID 1900); format: functional, organism-based

CCOc1ccc(CONS(=O)(=O)c2ccc(NC(C)=O)cc2)cc1Cl
IC50 [1]: 11.1 µM (inactive)
IC50 [2]: 83.3 µM (inactive)
IC50 [3]: 17.7 µM (inactive)

CCOC(=O)c1sc2nc(CSc3ccccc3)nc(N3CCCN(C)CC3)c2c1C
EC50 [4]: 8.64 µM (active)
EC50 [5]: 16.9 µM (active)
EC50 [6]: > 120 µM (not active)
CC50 [7]: 53.8 µM (active)
IC50 [8]: 149 µM (active)

CN1CC(c2ccccc2Cl)C2(COc3ccccc3C2=O)C12C(=O)Nc1ccccc12 (centres undefined)
AC50 [9]: 4.21 µM (active)
AC50 [10]: 3 µM (active)
AC50 [11]: 65.3 µM (active)
AC50 [12]: 6.24 µM (active)
AC50 [13]: 10.6 µM (active)

Cc1ccc(NC(=O)CN(C)C(=O)c2cc(S(=O)(=O)N(C)C)ccc2N2CCCC2)cc1
IC50 [1]: 4.27 µM (active)
IC50 [2]: 83.3 µM (inactive)
IC50 [3]: 10.4 µM (inactive)

Cc1ccc(NC(=O)c2cnn(-c3ccccc3)c2C)cc1C
AC50 [14]: 7.23 µM (active)
AC50 [15]: 4.12 µM (active)

COc1ccc(C2c3ccc4ccccc4c3Oc3ncn(CCN(C)C)c(=N)c32)cc1 (centres undefined)
AC50 [16]: 19.9 µM (active)
EC50 [17]: 1.34 µM (active)
EC50 [18]: 22.1 µM (active)

Cc1sc2nc(CN3CCCCC3)nc(Nc3ccc4c(c3)OCCO4)c2c1C
AC50 [16]: 22.2 µM (active)

CCn1c(SCC(=O)c2c[nH]c3ccccc23)nc2cc(S(=O)(=O)N3CCOCC3)ccc21
IC50 [1]: 2.58 µM (active)
IC50 [2]: 83.3 µM (inactive)
IC50 [3]: 12.2 µM (inactive)

CC1=C(Cl)C2=NS(=O)(=O)CCN2C=C1Cl
AC50 [19]: 3.55 µM (active)

O=C1/C(=C/c2ccccc2[N+](=O)[O-])COc2ccccc21
AC50 [20]: 9.8 µM (active)
CC50 [7]: 100 µM (active)
IC50 [8]: 101 µM (active)
AC50 [19]: 4.77 µM (active)

O=C1CCCc2c1[nH]c1ccc(Cl)cc21
EC50 [4]: 9.1 µM (active)
AC50 [9]: 3.39 µM (active)
AC50 [10]: 15 µM (active)
AC50 [12]: < 0.26 µM (active)
AC50 [13]: 6.38 µM (active)

C[C@H]1CN([C@@H](C)CO)C(=O)Cc2cc(NC(=O)Nc3ccc4c(c3)OCO4)ccc2O[C@H]1CN(C)S(=O)(=O)c1ccccc1
AC50 [9]: 0.991 µM (active)
AC50 [10]: 0.739 µM (active)
AC50 [11]: 37.3 µM (active)
AC50 [13]: 7.28 µM (active)

C[C@H]1CN([C@@H](C)CO)C(=O)Cc2cc(NC(=O)Nc3ccc4c(c3)OCO4)ccc2O[C@H]1CN(C)S(=O)(=O)c1cccs1
AC50 [9]: 1.93 µM (active)
AC50 [11]: 49.9 µM (active)
AC50 [13]: 22.3 µM (active)

CC(=O)Nc1cccc(Oc2nc(NCCN(C)C)nc3ccsc23)c1
AC50 [16]: 11.1 µM (active)

N#Cc1cccc(-c2ccc([C@@H]3[C@@H]4CN(S(=O)(=O)c5ccc(-c6ccccc6)cc5)C[C@H]3N4)cc2)c1
AC50 [19]: 1.82 µM (active)

N#Cc1ccc(-c2ccc([C@@H]3[C@@H]4CN(S(=O)(=O)c5ccc(F)cc5)C[C@H]3N4)cc2)cc1
AC50 [21]: 4.69 µM (active)
AC50 [19]: 1.57 µM (active)

C/C(=N\Nc1nc2ccccc2[nH]1)c1ccc2c(c1)OCO2
EC50 (Streptococcus): > 150 µM (not active)
EC50 [17]: 1.37 µM (active)
EC50 (Streptokinase A): > 150 µM (not active)
AC50 [22]: 0.116 µM (active)
EC50 [18]: > 60 µM (not active)
IC50 [1]: 119 µM (inactive)
EC50 [23]: 13.3 µM (active)
IC50 [2]: 48.4 µM (inactive)
IC50 [3]: 28.2 µM (inactive)

CC(C)(C)n1nc(Cc2cccc3ccccc23)c2c(N)ncnc21
AC50 [9]: 7.07 µM (active)
AC50 [11]: 46.8 µM (active)
AC50 [12]: 31.1 µM (active)
AC50 [13]: 34.5 µM (active)
